Paper PMC3326647, “Single Enantiomer of YK-4-279 Demonstrates Specificity in Targeting the Oncogene EWS-FLI1” (Oncotarget, 2012)
pIC50: −log10 of the molar value. Like-named read-outs stand apart in the source and are kept apart here.

Tests used:
[1] = test system: RDES cells; test: Cellular proliferation (WST) assay, RDES; assay type: cell-based; settings: for pIC50: RD-ES, 72 h, RDES, ESFT (Type 2), read-out: IC50 at 3 days (+/− SEM)
Protocol: (§1) TC32, TC71, RDES, MMH-ES-1, STA-ET 7.2, A4573, and PC3 cells were grown in RPMI with 10% FBS and 1% HEPES. SKES cells were grown in McCoy's 5A medium with 15% FBS. MCF7, MDA-MB-231, PANC1, and ASPC1 cells were grown in colorless DMEM with 10% FBS. Cells were grown at a plating density of 5,000 – 15,000 cells/well, depending on cell line, in a 96-well plate. Small molecule or vehicle alone (DMSO) were added to cells in appropriate growth media the day after plating. After three days, viable cells were quantified using WST (Roche) according to the manufacturer's protocol. IC50 values were calculated by sigmoidal dose-response curve fit using Prism Graphpad 4.0.

[2] = test system: PC3 cells; test: Cellular proliferation (WST) assay, PC3; assay type: cell-based; settings: Homo sapiens, PC-3, 72 h, read-out: IC50 at 3 days (+/− SEM)
Protocol: as §1

[3] = test system: SKES cells; test: Cellular proliferation (WST) assay, SKES; assay type: cell-based; settings: 72 h, ESFT (Type 2), read-out: IC50 at 3 days (+/− SEM)
Protocol: as §1

[4] = test system: EWS-FLI1 and RHA; test: ELISA of binding between EWS-FLI1 and RHA
Protocol: EWS-FLI1 was used to coat the surface of a 96 well plate (MaxiSorb) at a concentration of 150ng/well in 100μL buffer containing 20mM Tris, 500mM sodium chloride, and 1M imidazole. Following overnight incubation, the plate was blocked with 4% BSA in PBS and washed with PBS + 0.1% Tween-20. Small molecules were added at concentrations of 1μM, 3μM, 10μM, and 30μM, followed by RHA (300ng/well) and allowed to incubate overnight. Following washing, incubation with RHA antibody (Everest) and anti-goat secondary, protein binding was detected using a TMB Peroxidase EIA Substrate Kit (Bio-Rad) per the manufacturer's instructions.

[5] = test system: TC32 cells; test: Cellular proliferation (WST) assay, TC32; assay type: cell-based; settings: Homo sapiens, TC-32, 72 h; TC32, ESFT (Type 1); read-out: IC50 at 3 days (+/− SEM)
Protocol: as §1

[6] = test system: ESFT cell lines; test: Cellular proliferation (WST) assay, panel of seven ESFT cell lines; assay type: cell-based; settings: 72 h
Protocol: as §1

[7] = test system: caspase-3 activity in A4573 ESFT cells; test: Caspase-3 activation dose titration in A4573 cells; assay type: cell-based; settings: between 0.3 and 1μM, 18 hours
Protocol: (§2) Cells were plated at 100,000 – 200,000 cells/well, depending on cell line, in a 12 well plate. Small molecule was added the following day. 18 hours later, lysates were collected using the manufacturer's protocol for the AC-DEVD-AMC substrate (BD Bioscience Pharmingen). Caspase-3 substrate was incubated for 2 hours with protein lysate and fluorescence from cleaved substrate was measured in a fluorimeter. Fluorescent signal was then normalized to protein lysate via BCA assay.

[8] = test system: non-ESFT cell lines (PC3, MCF7, MDA-MB-231, PANC1, ASPC1); test: Cellular proliferation (WST) assay, panel of five non-ESFT cell lines; assay type: cell-based; settings: 72 h
Protocol: as §1

[9] = test system: PANC1 cells; settings: PANC1 from a different source, previously reported; cited from earlier work
[10] = test system: PANC1 cells; test: Cellular proliferation (WST) assay, PANC1; assay type: cell-based; settings: Homo sapiens, PANC-1, 72 h; PANC1, pancreatic; read-out: IC50 at 3 days (+/− SEM)
Protocol: as §1

[11] = test system: STA-ET 7.2 cells; test: Cellular proliferation (WST) assay, STA-ET 7.2; assay type: cell-based; settings: 72 h; STA-ET 7.2, ESFT (Type 2); read-out: IC50 at 3 days (+/− SEM)
Protocol: as §1

[12] = design: method as in PMID 19584866; settings: xenograft mice, 75 mg per kg body weight; cited from earlier work
[13] = test system: caspase-3 activity in ESFT cells (TC32, RDES, SKES, A4573, MMH-ES-1, STA-ET 7.2); test: Caspase-3 activity in ESFT cells; assay type: cell-based; settings: 10μM, 18 hours
Protocol: as §2

[14] = test system: MCF7 cells; test: Cellular proliferation (WST) assay, MCF7; assay type: cell-based; settings: Homo sapiens, 72 h; MCF7, breast; read-out: IC50 at 3 days (+/− SEM)
Protocol: as §1

[15] = test system: MDA-MB-231 cells; settings: MDA-MB-231 from a different source, previously reported; cited from earlier work
[16] = test system: MMH-ES-1 cells; test: Cellular proliferation (WST) assay, MMH-ES-1; assay type: cell-based; settings: 72 h; MMH-ES-1, ESFT (Type 2); read-out: IC50 at 3 days (+/− SEM)
Protocol: as §1

[17] = test system: non-transformed cell lines; design: method as in PMID 19584866; settings: racemic; cited from earlier work
[18] = Pharmacokinetic analysis in rats; assay type: in vivo; settings: both sexes, Sprague-Dawley, plasma, po; rat, gavage administration
Protocol: (§3) All pharmacokinetic studies were performed using Sprague-Dawley rats. Nine rats per gender were assigned to nine dose groups, which received either a single IV injection of YK-4-279, (S)-YK-4-279, or (R)-YK-4-279 at a target dose of 25 mg/kg, or a single gavage administration of small molecule at a target dose level of 25 or 50 mg/kg. Plasma was obtained from the rats and samples were processed by liquid extraction followed by analysis using liquid chromatography with mass spectrometry (LC/MS). Average urine concentrations were measured at intervals from 0-4, 4-8, and 8-12 hours after dosing. 18 Fox Chase SCID Beige mice were injected with A4573 cells and received six doses of (S)-YK-4-279 at 75 mg/kg to determine concentration of small molecule in the tumors.

[19] = Evaluation of racemization in A4573 ESFT xenograft tumors; assay type: in vivo; settings: A4573 tumor-bearing SCID mice, IP (75 mg/kg), tumors resected two hours following dosing
Protocol: as §3

[20] = as little as 1μM small molecule
[21] = mean over seven ESFT cell lines, read-out: Mean IC50 at 3 days (+/− SEM)
[22] = seven EWS-FLI1 expressing cell lines, three days, read-out: range of mean IC50 values across ESFT cell lines
[23] = read-out: Mean IC50 at 3 days (+/− SEM), mean over five non-ESFT cell lines

| Compound | pIC50 [1] | pIC50 [2] | pIC50 [3] | inhibition of EWS-FLI1/RHA binding [4, 20] | pIC50 [5] | pIC50 [6, 21] | pIC50 [6, 22] | slope (m), rate of caspase activity increase [7] | pIC50 [10] | pIC50 [11] | caspase-3 activation, average across the panel of six ESFT cell lines [13] [fold] | pIC50 [14] | pIC50 [16] | pIC50 [8, 23] | bioavailability [18] [%] | other results |
| --- | --- | --- | --- | --- | --- | --- | --- | --- | --- | --- | --- | --- | --- | --- | --- | --- |
| COc1ccc(C(=O)CC2(O)C(=O)Nc3c(Cl)ccc(Cl)c32)cc1 (stereo not drawn) [YK-4-279] | 5.99 | 5.31 | 6.48 | able to inhibit the protein-protein interaction | 6.03 | 5.99 | 5.74 to 6.48 | 4.43 ± 0.66 | 5.82 | 6.22 | 8.8 | 4.64 | 6.03 |  |  | pIC50 ([8]; read-out: Mean IC50 at 3 days (+/− SEM)): 5.05; pIC50 [9]: < 4.70; toxicity [12]: no toxicity; pIC50 [15]: < 4.70; pIC50 [17]: < 4.52 |
| COc1ccc(C(=O)C[C@]2(O)C(=O)Nc3c(Cl)ccc(Cl)c32)cc1 [(R)-YK-4-279] | 4.90 | < 4.52 | 4.68 |  | 4.79 | 4.73 | 4.59 to 4.93 |  | 4.60 | 4.67 |  | < 4.52 | 4.59 | < 4.52 | 8 to 15 | inhibition of EWS-FLI1/RHA binding ([4]; 30μM): does not inhibit the binding |
| COc1ccc(C(=O)C[C@@]2(O)C(=O)Nc3c(Cl)ccc(Cl)c32)cc1 [(S)-YK-4-279] | 6.06 | 5.42 | 6.74 | able to inhibit the protein-protein interaction | 6.55 | 6.47 | 6.06 to 6.80 | 7.23 ± 0.32 | 5.77 | 6.51 | 10.3 | 4.71 | 6.47 | 5.16 | 2 to 6 | fold-difference in IC50 between the racemic and the active enantiomer ([1]; RDES cells): 1.18 fold; Percent of (S)-YK-4-279 present in tumor [19]: 100% |
